From PMC8234864, “Early Effects of the Soluble Amyloid β25-35 Peptide in Rat Cortical Neurons: Modulation of Signal Transduction Mediated by Adenosine and Group I Metabotropic Glutamate Receptors” (International Journal of Molecular Sciences, 2021)
Where no end group is shown, it is not given here.

Key:
Caspase 3 = Caspase 3 activity assay; assay type: cell-based, rat; conditions: 25 µM Aβ25-35 exposure
Procedure: A commercial kit (Molecular Probes, Barcelona, Spain) was used to determine Caspase 3 activity following the manufacturer’s instructions. Briefly, cortical neurons growth in 24-well plates were exposed to Aβ25-35 or maintained under control conditions. Cells were lysed and lysates centrifuged to clear cell debris. Then, 50 µL of test buffer containing Z-DEVD-Rhodamine 110, DTT, EDTA, PIPES, and CHAPS was added to the supernatants obtained in the proportions indicated by the manufacturer. After 30 min of incubation at room temperature, the […] of each sample was measured on a plate reader (excitation/emission 496/520 nm).

Total mGluR = assay: L-[3H]glutamate radioligand binding in intact cortical neurons; set-up: species or system rat; conditions: for Total mGluR Bmax: L-[3H]Glutamate saturation binding
Procedure: Metabotropic glutamate receptors were determined using the radioligand L-[^3H]glutamate, as described previously. Radioligand binding assays using intact cells were performed in 24-well plates. Briefly, cells were washed with serum-free DMEM buffered with 20 mM HEPES pH 7.4 and incubated for 60 min at 37 °C in a final volume of 250 µL, in the presence of 100 μM AMPA, 100 μM NMDA, and 100 μM kainate, to block glutamate binding to these receptor types; 10 μM of the glutamate uptake inhibitor D,L-threo-β-hydroxyaspartic acid; and increasing concentrations of L-[^3H] glutamate (200 nM to 1.2 µM). Non-labeled L-Glutamate in a concentration of 10^5 times higher than the radioligand was used to determine non-specific binding. After incubation, cells were washed with 500 µL of ice-cold buffer and disrupted with 0.2% SDS. Well contents were then transferred to vials and a scintillation liquid mixture was added to measure radioactivity. At least two wells from each plate were reserved for protein concentration measurement.

[1] = test system: mGluR5 (GRM5) gene expression; assay: mGluR5 gene expression by real-time PCR; assay type: cell-based, rat; conditions: 25 µM, 24 or 48 h, vs control neurons
Procedure: (§1) Total RNA was extracted using an ABI 6100 Nucleic Acid PrepStation according to the manufacturer’s protocol (Applied Biosystems Inc., Foster City, CA, USA). Total RNA from cells was isolated and stored at −80 °C. The quality of isolated RNA was estimated by the ratio A260/A280 and was in the range of 1.9–2.1. RNA integrity was evaluated by agarose gel electrophoresis according to MIQE guidelines using the “bleach gel” method. RNA concentrations were determined from the A260. One microgram of total RNA was reverse transcribed using Applied Biosystems High-Capacity cDNA Archive Kit.
(§2) To assess relative gene expression in neurons, quantitative real-time RT-PCR analysis was performed with an Applied Biosystems Prism 7500 Fast Sequence Detection System using TaqMan® universal PCR master mix according to the manufacturer’s specifications. […] Levels of RNA expression were determined using the 7500 Fast System SDS software version 1.3.1 (Applied Biosystems) according to the 2^−ΔΔCt method. […] The results from three independent repeat assays, performed in different plates each using different cDNA’s from the cultures analyzed, were averaged to produce a single mean quantity value for each mRNA.

A2AR = target: T1, A2AR (Rattus norvegicus, UniProt P30543); assay: A2AR-mediated AC stimulation (CGS 21680); assay type: cell-based; conditions: 25 µM, 24 h; 1 µM CGS 21680
T1 construct: endogenous in cells; host or cells: rat primary cortical neurons (intact)
Procedure: AC activity was determined as previously reported by Murphy with minor modifications. Briefly, control or treated cells were pre-incubated in serum-free DMEM buffered with 20 mM HEPES, pH 7.4, supplemented with 100 µM Ro 20-1724 and 2 U/mL ADA, for 10 min at 37 °C. AC activity was stimulated using specific ligands for 15 min at 37 °C in a final volume of 250 µL. The reaction was stopped by adding 500 µL 0.1 M HCl in absolute ethanol. Once centrifuged at 12,000× g for 10 min, supernatants were evaporated in speed-vac and resuspended in 150 µL assay buffer (50 mM Tris-HCl, 4 mM EDTA). Fifty microliters of the sample were used to determine cAMP accumulation using protein kinase A as a cAMP binding protein and [^3H]cAMP as radioligand. A cAMP standard curve (0–16 pmol) was prepared in the same buffer. Incubation was stopped by rapid filtration through Whatman GF/B filters.

[2] = test system: A1R (ADORA1) gene expression; assay: A1R gene expression by real-time PCR; assay type: cell-based, rat; conditions: 25 µM, 24 or 48 h
Procedure: as §1, §2

[3] = test system: A2AR (ADORA2A) gene expression; assay: A2AR gene expression by real-time PCR; assay type: cell-based, rat; conditions: 25 µM, 24 or 48 h
Procedure: as §1, §2

[4] = neurons exposed to 25 µM for 24 h
[5] = neurons exposed to 25 µM for 48 h

T1 sequence (P30543 whole entry): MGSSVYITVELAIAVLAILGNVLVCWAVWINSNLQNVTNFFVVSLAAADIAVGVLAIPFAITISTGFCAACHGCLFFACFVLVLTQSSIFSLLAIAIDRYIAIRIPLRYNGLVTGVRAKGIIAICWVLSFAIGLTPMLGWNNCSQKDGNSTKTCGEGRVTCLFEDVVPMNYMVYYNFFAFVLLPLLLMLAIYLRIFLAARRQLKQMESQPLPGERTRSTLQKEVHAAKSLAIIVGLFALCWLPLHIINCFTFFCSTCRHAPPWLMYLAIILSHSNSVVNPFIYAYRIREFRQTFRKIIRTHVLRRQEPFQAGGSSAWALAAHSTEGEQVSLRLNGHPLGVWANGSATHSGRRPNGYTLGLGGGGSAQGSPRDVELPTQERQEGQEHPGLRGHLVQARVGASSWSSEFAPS

Sequence: GSNKGAIIGLM [Aβ25-35]
- caspase 3 activity (Caspase 3): increase
- mGluR affinity (1/KD), % of the control value (Total mGluR; 25 µM, 24 or 48 h): ~50%
- Total mGluR density (Bmax) increase over control value (Total mGluR; 25 µM, 24 h): 61%
- Total mGluR density (Bmax) increase over control value (Total mGluR; 25 µM, 48 h): 99%
- Kd (Total mGluR; [4]): 1610 ± 423 nM
- Total mGluR Bmax (Total mGluR; [4]): 952 ± 9 pmol/mg prot
- Kd (Total mGluR; [5]): 1520 ± 163 nM
- Total mGluR Bmax (Total mGluR; [5]): 1178 ± 93 pmol/mg prot
- mGluR5 gene expression [1]: did not present any significant variation
- A2AR-mediated stimulation of AC activity (A2AR): did not alter
- A1R gene expression [2]: significantly increased
- A2AR gene expression [3]: significantly increased
